Tested on: HRV14
Assay: Inhibitory activity against human rhinovirus infection and replication (quantitative real-time PCR)
Format: cell-based
Details: Human rhinovirus sp., MRC5; 100 nmol/L test compound; MRC-5 cells infected with HRV14 at MOI=0.2; 48 hours; viral load normalized to 18s rRNA; read-out: Percent Inhibition
Procedure: Evaluation of inhibitory activity against human rhinovirus infection and replication (by quantitative real-time PCR)
A required amount of a test compound was weighed off and dissolved in dimethyl sulfoxide (DMSO) to yield a 10 mmol/L stock solution. Next, the stock solution was diluted with a medium for viral infection (minimum essential medium (MEM) supplemented with 2% fetal bovine serum, 5% Tryptose phosphate broth, and 30 mmol/L MgCl2) to prepare 100 nmol/L and 1000 nmol/L of test compound solutions. MRC-5 (human fetal lung fibroblast: ATCC) was suspended at a density of 30000 cells/mL in cell culture medium (MEM supplemented with 10% fetal bovine serum), and 625 μL of the suspension per well was seeded into a 24-well cell culture plate and cultured at 37° C. in 5% CO2. After 72 hours, it was confirmed that the plate had become 80% confluent. The plate was washed with 625 μL of phosphate-buffered physiological saline (Ca/Mg-free; PBS-) once, and 625 μL of the test compound solution prepared just before use was immediately added to the plate. After 30 minutes, the medium was removed followed by addition of 187.5 μL of the test compound solution that had been prepared such that the cells were infected with HRV14 (ATCC) at multiplicity of infection (MOI)=0.2. The cells were then cultured at 35° C. in 5% CO2. After additional 2 hours, 625 μL of the test compound solution prepared just before use was added, and the cells were cultured at 35° C. in 5% CO2. After 48 hours, the cells were washed with 625 μL of PBS- once, and total RNA was extracted from the cells using RNeasy (R) plus kit (Qiagen) according to the manufacturer's instruction. Subsequently, cDNA was synthesized using High-Capacity cDNA Reverse Transcription Kit (Thermo Fisher Scientific). Finally, quantitative real-time PCR was performed in 7500 Fast Real-time PCR system (Life technologies) to measure HRV14 and 18s rRNA. The measurement protocol consisted of the initial denaturation phase at 95° C. for 20 seconds followed by 40 cycles of the denaturation step at 95° C. for 3 seconds and the annealing/elongation step at 60° C. for 30 seconds. The primers used were HRV14 forward primer set forth in SEQ ID NO: 1 and HRV14 reverse primer set forth in SEQ ID NO: 2, and the probe is set forth in SEQ ID NO: 3.
18s rRNA was measured using Eukaryotic 18S rRNA Endogenous Control (Applied Biosystems). According to Equation 1, 18s ribosomal RNA was used as an internal standard to normalize the viral load of HRV14: Viral load of HRV14=The amount of HRV14 in virus-infected cells/the amount of 18s rRNA in virus-infected cells Equation 1
Inhibitory activity of test compounds was calculated as a percent inhibition (%) according to Equation 2: Percent inhibition (%)=[the viral load of HRV in virus-infected cells in the absence of the test compound −the viral load of HRV in virus-infected cells in the presence of the test compound]/[the viral load of HRV in virus-infected cells in the absence of the test compound]×100 Equation 2
The results of using 100 nmol/L test compound solutions were shown in the tables below according to Examples. In the tables, percent inhibition was expressed as follows: percent inhibition >80%: +++, 80%≥percent inhibition >50%: ++, and 50%≥percent inhibition:+.

Compound: Cc1nc2sc(C(C)(C)C)cn2c1-c1ccc(C#N)c(S(=O)(=O)N[C@H]2CC[C@@H](O)CC2)c1 [Example 1-10]
- inhibition at 0.1 µM: > 80%

Compound: COc1ccc(-c2c(C)nc3sc(C(C)(C)O)nn23)cc1S(=O)(=O)[C@H]1CC[C@@](C)(O)CC1 [Example 15-1]
- inhibition at 0.1 µM: ≤ 50%

Compound: COc1ccc(-c2c(C)nc3sc(C(C)(C)O)nn23)cc1S(=O)(=O)NC1(C(C)(C)O)CC1 [Example 23]
- inhibition at 0.1 µM: > 80%

Compound: COc1ccc(-c2c(C)nc3sc(C(O)(C4CC4)C4CC4)nn23)cc1S(=O)(=O)[C@H]1C[C@@H](O)C1 [Example 2-96]
- inhibition at 0.1 µM: > 80%

Compound: Cc1nc2sc(C(C)C)nn2c1-c1ccc(Cl)c(S(=O)(=O)N[C@H]2CC[C@@H](O)CC2)c1 [Example 1-9]
- inhibition at 0.1 µM: > 80%

Compound: COc1ccc(-c2c(C)nc3sc(C(C)(C)O)nn23)cc1S(=O)(=O)C1CC(F)(F)C1 [Example 2-69]
- inhibition at 0.1 µM: 50 to 80%

Compound: Cc1nc2sc(C(C)(C)O)nn2c1-c1ccc(C(F)(F)F)c(S(=O)(=O)C2CN(C(=O)OC(C)(C)C)C2)c1 [Example 2-36]
- inhibition at 0.1 µM: > 80%

Compound: Cc1nc2sc(C3CC3)nn2c1-c1ccc(C(F)(F)F)c(S(=O)(=O)CCO)c1 [Example 2-15]
- inhibition at 0.1 µM: 50 to 80%

Compound: COc1ccc(-c2c(C)nc3sc(C(C)(C)O)nn23)cc1S(=O)(=O)NCC(O)C(F)(F)F (stereo not shown) [Example 21-16]
- inhibition at 0.1 µM: 50 to 80%

Compound: COc1ccc(-c2c(C)nc3sc(C(C)(C)O)nn23)cc1S(=O)(=O)C1CCC2(CC1)OCCO2 [Example 2-68]
- inhibition at 0.1 µM: 50 to 80%

Compound: COc1ccc(-c2c(C)nc3sc(C(C)(C)O)nn23)cc1S(=O)(=O)[C@H]1C[C@@H](O)C1 [Example 2-54]
- inhibition at 0.1 µM: ≤ 50%

Compound: COc1ccc(-c2c(C)nc3sc(C(C)(C)O)nn23)cc1S(=O)(=O)C1(C(C)(C)O)CC(F)(F)C1 [Example 2-67]
- inhibition at 0.1 µM: > 80%

Compound: COC(=O)C(C)(C)S(=O)(=O)c1cc(-c2c(C)nc3sc(C(C)(C)O)nn23)ccc1OC [Example 1-41]
- inhibition at 0.1 µM: 50 to 80%

Compound: COc1ccc(-c2c(C)nc3sc(C(C)(C)O)cn23)cc1S(=O)(=O)Nc1cccc(O)c1 [Example 2-80]
- inhibition at 0.1 µM: ≤ 50%

Compound: COc1ccc(-c2c(C)nc3sc(C(C)(C)O)nn23)cc1S(=O)(=O)C1(CO)CC1 [Example 4-4]
- inhibition at 0.1 µM: 50 to 80%

Compound: Cc1nc2sc(C(C)(C)O)nn2c1-c1ccc(C(F)(F)F)c(S(=O)(=O)NCC(O)C(F)(F)F)c1 (stereo not shown) [Example 2-33]
- inhibition at 0.1 µM: > 80%

Compound: COc1ccc(-c2c(C)nc3sc(C(C)(C)O)cn23)cc1S(=O)(=O)Nc1ccc(O)cc1 [Example 21-18]
- inhibition at 0.1 µM: 50 to 80%

Compound: COc1ccc(-c2c(C)nc3sc(C(C)(C)O)nn23)cc1S(=O)(=O)CC(C)(C)CO [Example 2-50]
- inhibition at 0.1 µM: ≤ 50%

Compound: [2H]C([2H])([2H])Oc1ccc(-c2c(C)nc3sc(C(C)(C)O)nn23)cc1S(=O)(=O)CC(C)(C)O [Example 2-58]
- inhibition at 0.1 µM: 50 to 80%

Compound: COc1ccc(-c2c(C)nc3sc(C(C)(C)O)cn23)cc1S(=O)(=O)N(C)[C@H]1CC[C@@H](O)CC1 [Example 24]
- inhibition at 0.1 µM: ≤ 50%

Compound: COc1ccc(-c2c(C)nc3sc(C(C)(C)C)cn23)cc1S(=O)(=O)N[C@H]1CC[C@@H](O)CC1 [Example 1-49]
- inhibition at 0.1 µM: > 80%

Compound: Cc1nc2sc(C(C)(C)O)nn2c1-c1cnc(C(F)(F)F)c(S(=O)(=O)N[C@H]2CC[C@H](O)CC2)c1 [Example 2-11]
- inhibition at 0.1 µM: ≤ 50%

Compound: Cc1nc2sc(C(C)(C)O)nn2c1-c1ccc(O)c(S(=O)(=O)CC(C)(C)O)c1 [Example 16]
- inhibition at 0.1 µM: ≤ 50%

Compound: COc1ccc(-c2c(C)nc3sc(C4(C#N)CC4)nn23)cc1S(=O)(=O)C1CC1 [Example 1-40]
- inhibition at 0.1 µM: ≤ 50%

Compound: Cc1nc2sc(C(C)(C)O)nn2c1-c1ccc(C(F)(F)F)c(S(=O)(=O)NC23CCC(O)(CC2)CC3)c1 [Example 2-10]
- inhibition at 0.1 µM: > 80%

Compound: Cc1nc2sc(C(C)(C)O)cn2c1-c1ccc(C(F)(F)F)c(S(=O)(=O)CC(C)(C)O)c1 [Example 2-52]
- inhibition at 0.1 µM: ≤ 50%

Compound: COc1ccc(-c2c(C)nc3sc(C(C)(C)O)cn23)cc1S(=O)(=O)N[C@H]1CC[C@@H](OC)CC1 [Example 2-2]
- inhibition at 0.1 µM: ≤ 50%

Compound: COC(C)(C)c1nn2c(-c3ccc(C(F)(F)F)c(S(=O)(=O)N[C@H]4CC[C@H](O)CC4)c3)c(C)nc2s1 [Example 1-29]
- inhibition at 0.1 µM: > 80%

Compound: Cc1nc2sc(C(C)(C)O)nn2c1-c1ccc(C(F)(F)F)c(S(=O)(=O)C2CN(C(N)=O)C2)c1 [Example 11]
- inhibition at 0.1 µM: ≤ 50%

Compound: Cc1nc2sc(C(C)(C)O)nn2c1-c1ccc(C(F)(F)F)c(S(=O)(=O)NC(C)(C)CO)c1 [Example 1-33]
- inhibition at 0.1 µM: > 80%

Compound: COc1ccc(-c2c(C)nc3sc(C(C)(C)O)nn23)cc1S(=O)(=O)C1COC1 [Example 2-49]
- inhibition at 0.1 µM: ≤ 50%

Compound: COc1ccc(-c2c(C)nc3sc(C(C)(C)O)nn23)cc1S(=O)(=O)Cc1ccncc1 [Example 2-95]
- inhibition at 0.1 µM: 50 to 80%

Compound: [2H]C([2H])([2H])C(O)(CS(=O)(=O)c1cc(-c2c(C)nc3sc(C(C)(C)O)nn23)ccc1C(F)(F)F)C([2H])([2H])[2H] [Example 2-97]
- inhibition at 0.1 µM: > 80%

Compound: COc1ncc(-c2c(C)nc3sc(C(C)(C)O)nn23)cc1S(=O)(=O)N[C@H]1CC[C@H](O)CC1 [Example 1-24]
- inhibition at 0.1 µM: ≤ 50%

Compound: Cc1nc2sc(C(O)(C(F)(F)F)C(F)(F)F)cn2c1-c1ccc(Cl)c(S(=O)(=O)N[C@H]2CC[C@@H](O)CC2)c1 [Example 1-11]
- inhibition at 0.1 µM: ≤ 50%

Compound: COc1ccc(-c2c(C)nc3sc(C(C)(C)O)cn23)cc1S(=O)(=O)NC(C)(C)CO [Example 2-4]
- inhibition at 0.1 µM: ≤ 50%

Compound: COc1ccc(-c2c(C)nc3sc(C(C)(C)O)nn23)cc1S(=O)(=O)NC1(CO)CC(F)(F)C1 [Example 21-15]
- inhibition at 0.1 µM: > 80%

Compound: [2H]C([2H])([2H])Oc1ccc(-c2c(C)nc3sc(C4CC4)nn23)cc1S(=O)(=O)NC(C)(C)CO [Example 2-90]
- inhibition at 0.1 µM: > 80%

Compound: COc1ccc(-c2c(C)nc3sc(C(C)(C)O)nn23)cc1S(=O)(=O)Nc1ccc(C(C)(C)O)cc1 [Example 3-3]
- inhibition at 0.1 µM: ≤ 50%

Compound: COc1c(F)cc(-c2c(C)nc3sc(C(O)(C4CC4)C4CC4)nn23)cc1S(=O)(=O)C(C)(C)C(N)=O [Example 6-4]
- inhibition at 0.1 µM: > 80%

Compound: COc1ccc(-c2c(C)nc3sc(C(C)(C)O)nn23)cc1S(=O)(=O)NC1(C)CCC(O)CC1 (stereo not shown) [Example 21-14]
- inhibition at 0.1 µM: > 80%

Compound: COc1ccc(NS(=O)(=O)c2cc(-c3c(C)nc4sc(C(C)(C)O)cn34)ccc2OC)cc1 [Example 2-79]
- inhibition at 0.1 µM: 50 to 80%

Compound: CC(=O)N1CC(NS(=O)(=O)c2cc(-c3c(C)nc4sc(C(C)(C)O)nn34)ccc2C(F)(F)F)C1 [Example 2-24]
- inhibition at 0.1 µM: ≤ 50%

Compound: COc1ccc(-c2c(C)nc3sc(C(C)(C)O)nn23)cc1S(=O)(=O)[C@H]1C[C@@](C)(C(C)(C)O)C1 [Example 2-74]
- inhibition at 0.1 µM: ≤ 50%

Compound: COc1c(F)cc(-c2c(C)nc3sc(C(C)(C)O)nn23)cc1S(=O)(=O)CC(C)(C)O [Example 2-43]
- inhibition at 0.1 µM: 50 to 80%

Compound: COc1ccc(-c2c(C)nc3sc(C(C)(C)O)nn23)cc1S(=O)(=O)[C@H]1C[C@](C)(C(C)(C)O)C1 [Example 2-73]
- inhibition at 0.1 µM: > 80%

Compound: Cc1nc2sc(C(C)(C)O)nn2c1-c1ccc(C(F)(F)F)c(S(=O)(=O)N[C@H]2CC[C@H](O)CC2)c1 [Example 1-25]
- inhibition at 0.1 µM: > 80%

Compound: Cc1nc2sc(C(C)(C)O)nn2c1-c1ccc(C(F)(F)F)c(S(=O)(=O)C2CN(C)C2)c1 [Example 12-1]
- inhibition at 0.1 µM: 50 to 80%

Compound: Cc1nc2sc(C3CC3)cn2c1-c1ccc(Cl)c(S(=O)(=O)N[C@H]2CC[C@@H](O)CC2)c1 [Example 1-5]
- inhibition at 0.1 µM: 50 to 80%

Compound: COc1ccc(-c2c(C)nc3sc(C(C)(C)O)nn23)cc1S(=O)(=O)NC[C@H]1C[C@@H](O)C1 [Example 21-3]
- inhibition at 0.1 µM: 50 to 80%

Compound: Cc1nc2sc(C(C)(C)O)nn2c1-c1ccc(CO)c(S(=O)(=O)CC(C)(C)O)c1 [Example 17]
- inhibition at 0.1 µM: ≤ 50%

Compound: COc1ccc(-c2c(C)nc3sc(C(C)(C)C(=O)N(C)C)nn23)cc1S(=O)(=O)N[C@H]1CC[C@@H](O)CC1 [Example 19]
- inhibition at 0.1 µM: > 80%
